pIC50: −log10 of the molar value. Where two headings read alike, the source gives them in different places.
Legend:
[1] = system: recombinant human CYP1A2, 2B6, 2C8, 2C9, 2C19, 2D6, 3A4, and FMO3; test: Human recombinant CYP and FMO3 phenotyping; assay type: in vitro ADME; settings: of CYPs tested (1A2, 2B6, 2C8, 2C9, 2D6, 3A4) and FMO3
Protocol: The involvement of CYPs and FMO3 in the metabolism of Compound 6 was evaluated using recombinant human CYP1A2, 2B6, 2C8, 2C9, 2C19, 2D6, 3A4, and FMO3 (CYPs and FMO3 from Corning Life Sciences). Incubations contained 0.5 μM of Compound 6, 100 pmol/mL of each CYP isoform, or 0.5 mg/mL of FMO3 isoform, and 1 mM NADPH cofactor in 50 mM potassium phosphate buffer at pH 7.4. All incubations were pre-warmed at 37° C. for 10 minutes, followed by addition of cofactor to initiate the reaction. Incubations were carried out for 60 minutes at 37° C. At each time point (0, 5, 10, 20, 30 and 60 minutes), an aliquot of sample in the incubation pleases was taken and dispersed into a quench plate containing 3-fold volume of acetonitrile and carbutamide as an internal standard. The samples were centrifuged, and the supernatant was analyzed using LC-MS/MS.
(§1) Quantitation of the substrate depletion in recombinant CYPs and FMO3 phenotyping, chemical inhibition in hepatocytes, and enzyme kinetics assays were analyzed by monitoring substrate depletion using LC-MS/MS.
The intrinsic clearance of Compound 6 in rCYP and hepatocytes was determined by integrating the parent peak on the chromatograms, and the extent of substrate depletion measured by comparing parent peak area loss over time. […]

EGFR = EGFR (Homo sapiens, UniProt P00533); test: Other kinase MSA: EGFR; assay type: biochemical; settings: 5 μM ATP, CSKtide substrate, 3 hours; read-out: IC50, Enzyme EGFR
EGFR, sequence (P00533 25-1210, species assumed): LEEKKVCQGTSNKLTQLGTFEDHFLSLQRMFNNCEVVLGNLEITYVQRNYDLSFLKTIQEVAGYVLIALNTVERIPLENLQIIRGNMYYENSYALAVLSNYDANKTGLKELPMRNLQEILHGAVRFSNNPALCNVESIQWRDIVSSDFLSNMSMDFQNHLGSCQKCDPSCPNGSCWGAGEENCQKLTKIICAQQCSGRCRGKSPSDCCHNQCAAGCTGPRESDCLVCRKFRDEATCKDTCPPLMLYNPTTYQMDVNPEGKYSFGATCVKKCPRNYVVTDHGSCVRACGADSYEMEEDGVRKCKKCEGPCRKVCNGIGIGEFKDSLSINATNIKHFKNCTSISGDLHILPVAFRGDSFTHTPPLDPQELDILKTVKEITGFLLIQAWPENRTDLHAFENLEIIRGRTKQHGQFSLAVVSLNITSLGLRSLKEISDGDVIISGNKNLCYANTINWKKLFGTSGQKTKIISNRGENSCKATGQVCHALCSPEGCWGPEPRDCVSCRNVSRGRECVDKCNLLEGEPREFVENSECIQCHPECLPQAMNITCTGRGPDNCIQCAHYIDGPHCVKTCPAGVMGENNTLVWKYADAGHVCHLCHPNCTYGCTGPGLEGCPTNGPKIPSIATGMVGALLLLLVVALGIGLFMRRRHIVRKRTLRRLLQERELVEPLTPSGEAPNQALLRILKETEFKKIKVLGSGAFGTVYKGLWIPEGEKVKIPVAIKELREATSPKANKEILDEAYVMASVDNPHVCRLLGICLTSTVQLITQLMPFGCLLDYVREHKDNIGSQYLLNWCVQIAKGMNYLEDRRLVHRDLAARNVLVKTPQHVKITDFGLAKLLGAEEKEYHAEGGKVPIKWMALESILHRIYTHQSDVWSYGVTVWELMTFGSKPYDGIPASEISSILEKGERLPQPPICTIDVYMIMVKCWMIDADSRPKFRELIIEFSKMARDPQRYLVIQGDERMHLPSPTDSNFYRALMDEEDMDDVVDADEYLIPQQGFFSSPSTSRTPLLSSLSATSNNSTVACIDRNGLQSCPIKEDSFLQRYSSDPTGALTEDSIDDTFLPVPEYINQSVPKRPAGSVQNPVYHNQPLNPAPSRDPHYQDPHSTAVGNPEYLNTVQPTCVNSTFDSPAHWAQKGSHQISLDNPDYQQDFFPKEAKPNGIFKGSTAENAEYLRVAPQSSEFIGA
Protocol: Kinase activity, unless otherwise indicated, was measured in vitro using an electrophoretic mobility shift assay (MSA). The phosphorylation of a peptide substrate by BTK and other kinases was measured. The kinase reactions were assembled in a total volume of 25 μL per well in 384 well plates. The following was added to each well: compound buffer (or control); enzyme buffer; and substrate buffer, as further described below.
Enzyme and compound/inhibitor were optionally pre-incubated. To each well was added: 8 μL of 2.5×ATP and substrate in 1× Master Buffer (1× Master Buffer as described above). The plate was incubated at room temperature for 3 hours. […] OG488 was Oregon Green dye, which was conjugated to the peptide substrate. […] The kinase activity for the kinases in Table 3 were measured at 3 hours incubation time, except that in the case of MAP2K1 and MAP2K2 assay, pre-activation of ERK was done for 30 min with 6 μM of ATP, and then the detection of activated ERK in the presence of compounds was done after 60 minutes of incubation.
The terminated reactions were analyzed using a 12 channel LABCHIP® 3000 microfluidic detection instrument (available from Caliper Life Sciences, Waltham, Mass.). […] Change in the relative fluorescence intensity of the substrate and product peaks was the parameter measured, reflecting enzyme activity. […]

BTK = molecular target: T1, BTK (Homo sapiens, UniProt Q06187); test: BTK kinase electrophoretic mobility shift assay (MSA); assay type: biochemical; settings: 50 μM ATP, 0.5 nM BTK enzyme (Nanosyn-293HEK, WT), 3 hours at 25° C.; all examples except 50, 51, 62 and 63; read-out: BTK IC50
T1 construct: purchased Nanosyn, Santa Clara, Calif; host or cells: 293HEK
T1 sequence (Q06187 whole entry): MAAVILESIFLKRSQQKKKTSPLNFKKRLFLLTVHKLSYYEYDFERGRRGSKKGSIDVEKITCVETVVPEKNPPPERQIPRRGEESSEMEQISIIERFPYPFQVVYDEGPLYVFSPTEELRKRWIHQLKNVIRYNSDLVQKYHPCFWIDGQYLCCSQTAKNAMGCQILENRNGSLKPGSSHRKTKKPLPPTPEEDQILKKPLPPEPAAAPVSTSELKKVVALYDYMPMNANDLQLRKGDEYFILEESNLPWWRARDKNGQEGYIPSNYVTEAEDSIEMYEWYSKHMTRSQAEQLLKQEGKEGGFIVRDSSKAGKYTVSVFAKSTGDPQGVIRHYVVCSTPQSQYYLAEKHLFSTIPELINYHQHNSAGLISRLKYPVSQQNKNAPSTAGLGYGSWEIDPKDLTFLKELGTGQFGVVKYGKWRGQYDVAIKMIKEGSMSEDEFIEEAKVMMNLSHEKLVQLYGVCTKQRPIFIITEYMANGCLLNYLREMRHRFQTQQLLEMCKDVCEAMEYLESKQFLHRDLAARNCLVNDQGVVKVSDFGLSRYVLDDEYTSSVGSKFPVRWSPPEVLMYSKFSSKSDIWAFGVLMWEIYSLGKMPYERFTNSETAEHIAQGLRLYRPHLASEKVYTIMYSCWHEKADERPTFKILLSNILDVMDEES

[2] = system: human hepatocyte suspension; test: Chemical inhibition in human hepatocytes (intrinsic clearance with and without CYP inhibitors); assay type: in vitro ADME
Protocol: (§2) The contribution of CYPs to the metabolism of Compound 6 was evaluated in human hepatocyte suspension (about 500,000 cells/mL) (hepatocytes from BioIVT, Inc.) treated with or without azamulin (CYP3A4 mechanism-based inhibitor) or 1-aminobenzotriazole (ABT)/tienilic acid (a pan-CYP inhibitor regimen) for 30 minutes. The hepatocyte suspension with inhibitors was preincubated with 2× azamulin or 1-ABT/tienilic acid in Williams' media E and then added to 2× Compound 6 in media to give a final concentrations of 2.5 μM azamulin or 0.5 mM 1-ABT/1.5 μM tienilic acid and 0.5 μM Compound 6, respectively.
(§3) Final incubation volume was 25 μL. Samples were incubated in 384-well plates at 37° C. with 5% CO2 and gentle shaking. At each time point (0, 15, 30, 60, 120, and 240 minutes), samples in the incubation plates were quenched with acetonitrile:MeOH (95:5, v:v) with carbutamide as internal standard (quench ration 3:1). The samples were centrifuged, and the supernatant was analyzed using LC-MS/MS.
as §1
(§4) The intrinsic clearance of Compound 6 in rCYP and hepatocytes was determined by integrating the parent peak on the chromatograms, and the extent of substrate depletion measured by comparing parent peak area loss over time. The elimination rate constant (k, transformation of % parent remaining versus incubation time: y=a*e^−(kt). Where y is the % parent remaining, t (min) is the time point within the incubation, and a is the % parent remaining at time 0 minute. From this, intrinsic clearance in rCYP (CLint, CYP, expressed in units of μL/min/pmol CYP) and in hepatocytes (CLint, hep, expressed in units of μL/min/million cells were derived using the equations below:
(§5) Clint,hep=k*1000/Cell Concentration (million cells/mL)
(§6) The fraction of metabolism inhibited by the chemical treatment in human hepatocytes was calculated using the equation:
(§7) fm,CYP=[Clint,hep(no inhibitor)−Clint,hep(PanCYP or azamulin])/[Clint, hep(no inhibitor)]

[3] = as above; assay type: in vitro ADME; settings: human, human hepatocyte suspension
Protocol: as §2, §3, §1, §4, §5, §6, §7

With `C=CC(=O)N1CCN([C@@H]2CCNc3c2nn(-c2ccc(Oc4ccccc4)cc2)c3C(N)=O)CC1` [Example 6, (7R)-2-(4-phenoxyphenyl)-7-[4-(prop-2-enoyl)piperazin-1-yl]-4,5,6,7-tetrahydro-2H-pyrazolo[4,3-b]pyridine-3-carboxamide] the “major contributing enzyme in metabolism” value [1] was “CYP3A4 was identified as the major contributing enzyme”, the pIC50 (EGFR) was 6.07 and the pIC50 (BTK) was 8.96. The “% Total CYP Contribution In Vitro” value ([2]; calculated from the PAN CYP inhibitor regimen of 1-ABT and tienilic acid, human hepatocyte suspensions) was 38.3%, the “CYP contribution to the hepatic metabolism” value ([2]; following incubation with a pan-CYP inhibitor cocktail in human hepatocytes) was “approximately 30%” and the “% Inhibition by azamulin” value ([2]; fraction of clearance in human hepatocytes inhibited by azamulin) was 31.4%. The “non-CYP hepatic enzymes contribution to the remaining clearance” value ([2]; human hepatocytes) was “about 70%”, the hepatocyte CLint at 0.5 μM ([3]; 0.5 μM Compound 6, 0.5 mM 1-ABT/1.5 μM tienilic acid, read-out: CLint, PAN CYP) was 8.23 µL/min/1e6 cells and the hepatocyte CLint at 0.5 μM ([3]; 0.5 μM Compound 6, no inhibitor, read-out: CLint, no inhibitor) was 13.3 µL/min/1e6 cells. For the same compound, the hepatocyte CLint at 0.5 μM ([3]; with 2.5 μM azamulin (CYP3A4 mechanism-based inhibitor), 0.5 μM Compound 6, 2.5 μM azamulin (CYP3A4 inhibitor), read-out: CLint, Azamulin) was 9.15 µL/min/1e6 cells.

— patent US20220213092A1, “BICYCLIC PYRAZOLE BRUTON'S TYROSINE KINASE INHIBITORS” (AbbVie Inc., priority 2020, published 2022)
